Experimental data: patent publication US6992079B2, “Substituted 11-phenyl-dibenzazepine compounds useful for the treatment or prevention of diseases characterized by abnormal cell proliferation” (President Fellows of Harvard College, priority 1997, dated 2006)

Experiments:
[1] = test system: cyclin D1 and E expression; test: Cyclin expression and cell cycle in vitro; type: cell-based
[2] = test system: human melanoma MM-RU cells; test: Lung metastases in MM-RU tumor-bearing mice; type: in vivo, nude mice
[3] = test system: dominant negative PKR mutant cells; test: Growth of dominant negative PKR mutant cells; type: cell-based; conditions: FIG. 12
[4] = test system: HUVEC; test: SRB antiproliferative assay; type: cell-based; conditions: HUVEC (Normal human), 5% FCS/5 day incubation
Description: (§1) The cells were passaged using Trypsin (Gibco).

[5] = test system: GM; test: SRB antiproliferative assay; type: cell-based; conditions: GM (Normal human), 5% FCS/5 day incubation
Description: as §1

[6] = test system: L929; test: SRB antiproliferative assay; type: cell-based; conditions: L929 (Normal mouse), 5% FCS/5 day incubation
Description: as §1

[7] = test system: DU-145; test: SRB antiproliferative assay; type: cell-based; conditions: Homo sapiens, DU-145 (Prostate), 5% FCS/5 day incubation
Description: as §1

[8] = test system: SK-MEL-28; test: SRB antiproliferative assay; type: cell-based; conditions: Homo sapiens, SK-MEL-28 (Melanoma), 5% FCS/5 day incubation
Description: as §1

[9] = test system: ACHN; test: SRB antiproliferative assay; type: cell-based; conditions: Homo sapiens, ACHN (Renal), 5% FCS/5 day incubation
Description: as §1

[10] = test system: CaSki; test: SRB antiproliferative assay; type: cell-based; conditions: Homo sapiens, Ca-Ski, CaSki (Cervical), 5% FCS/5 day incubation
Description: as §1

[11] = test system: HCT-15; test: SRB antiproliferative assay; type: cell-based; conditions: Homo sapiens, HCT-15 (Colon), 5% FCS/5 day incubation
Description: as §1

[12] = test system: SK-OV-3; test: SRB antiproliferative assay; type: cell-based; conditions: Homo sapiens, SK-OV-3 (Ovary), 5% FCS/5 day incubation
Description: as §1

[13] = test system: HTB174; test: SRB antiproliferative assay; type: cell-based; conditions: Homo sapiens, HTB174 (Lung), 5% FCS/5 day incubation
Description: as §1

[14] = test system: 3T3; test: SRB antiproliferative assay; type: cell-based; conditions: NIH3T3, 3T3 (Normal mouse), 5% FCS/5 day incubation
Description: as §1

[15] = Preliminary toxicity studies in mice and rats; type: in vivo
[16] = test system: PC-3 human prostate carcinoma; test: Mouse xenograft tumor growth; type: in vivo
[17] = test system: PC-3 Human Prostate Tumor cells; test: XTT growth inhibition assay; type: cell-based; conditions: PC-3 cells
[18] = test system: HCC-2998; test: In-Vitro Testing SRB panel: Colon Cancer; type: cell-based
Description: The dose-response curve page of the data package is created by plotting the PGs against the log10 of the corresponding concentration for every cell line. The cell line curves are grouped by subpanel. Horizontal lines are provided at the PG values of […]. The concentrations corresponding to points where the curves cross these lines are the GI50, TGI, and LC50, respectively.

[19] = MM-RU tumor-bearing mice, 80 mg/kg/d × 5/w × 3 s.c.
[20] = MM-RU tumor-bearing mice, 100 mg/kg/d × 28, p.o.
[21] = administered intraperitoneally, orally or subcutaneously

## O=C(c1ccc([N+](=O)[O-])cc1)N1Cc2ccccc2C(c2ccccc2Cl)c2ccccc21 (centres unmarked) [Compound 28, N-(4′-Nitrobenzoyl)-11-(2′-chlorophenyl)-5,6-dihydro-11H-dibenz[b,e]azepine]
[1]
  cell cycle arrest: induction of G0-G1 cell cycle arrest
  cyclin D1 and E expression: inhibit cyclin D1 and E expression
[2]; [19]
  Body Wt. Change: 107%
  Liver Wt.: 0.97 ± 0.12 gram
  Lung Metastases: 46 ± 12
[2]; [20]
  Body Wt. Change: 105%
  Liver Wt.: 1.00 ± 0.09 gram
  Lung Metastases: 45 ± 10
[2]; nude mice, MM-RU cells, oral administration or subcutaneous injection
  Lung Metastases: lung metastases were significantly reduced
[3]
  resistance of dominant negative PKR mutant cells to compound: resistance of dominant negative PKR mutant cells
[4]
  IC50: 700 nM
[5]
  IC50: 900 nM
[6]
  IC50: 600 nM
[7]
  IC50: 900 nM
[8]
  IC50: 400 nM
[9]
  IC50: 700 nM
[10]
  IC50: 500 nM
[11]
  IC50: 400 nM
[12]
  IC50: > 1000 nM
[13]
  IC50: 100 nM
[14]
  IC50: > 1000 nM
[15]; [21]
  body weight losses: did not cause significant body weight losses
  gross observations of brain, heart, lungs, liver, spleen, kidney and gastrointestinal tract: no abnormalities were detected
[15]; mice and rats
  systemic toxicity: no obvious systemic toxicity
[16]; PC-3 mouse xenograph
  apparent toxicity: no sign of apparent toxicity
[16]; mouse xenograph
  growth of PC-3 human prostate carcinoma: significant inhibitory effects on the growth
[17]
  PC-3 prostate cancer cell growth (XTT): inhibits PC-3 prostate cancer cell growth

## COc1cccc2c1C(c1ccccc1Cl)c1cc(Cl)ccc1N(C(=O)c1ccc([N+](=O)[O-])cc1)C2 (centres unmarked) [Compound 31]
[18]; HCC-2998
  TGI: >1.00E−04 Molar
[18]; HCC-2998, log10 conc -4 Molar
  Percent Growth: 33%
[18]; HCC-2998, log10 conc -5 Molar
  Percent Growth: 45%
[18]; HCC-2998, log10 conc -6 Molar
  Percent Growth: 59%
[18]; HCC-2998, log10 conc -7 Molar
  Percent Growth: 93%
[18]; HCC-2998, log10 conc -8 Molar
  Percent Growth: 104%
[18]; Homo sapiens, HCC 2998
  GI50: 4340 nM
[18]; Homo sapiens, HCC-2998, read-out: LC50 (the source's name)
  CC50: > 100000 nM
